{"source": "patent US20110071630A1", "about": "“SODIUM CHANNEL BLOCKER DELIVERY SYSTEM WITH SCLERAL LENS” (Boston Foundation for Sight, priority 2009, published 2011)", "key": {"cornea [1]": {"tested_on": "cornea", "details": "0.05% concentration, after photorefractive keratectomy; cited from earlier work"}, "corneal neuropathic pain [2]": {"tested_on": "corneal neuropathic pain", "test": "Treatment of corneal neuropathic pain in patients, drug solution in the fluid reservoir of a scleral lens (BOS-P)", "assay_type": "in vivo, human", "protocol": "(§1) A patient with well established primary Sjögren's syndrome and severe dry eyes was treated for intense, constant corneal pain using the anesthetic delivery system disclosed herein. Specifically, the patient was treated with bupivacaine and BOS-P devices. The concentration of non-preserved bupivacaine was rapidly titrated using frequent (every 2-5 minutes) drops in the more symptomatic left eye (open label) measuring corneal sensitivity with a Cochet-Bonnet aesthesiometer (with adequate recovery times) until reaching the concentration that avoided any depression of corneal sensitivity. The sub-anesthetic concentration in this patient was determined to be 0.001%. Both BOS-P devices were filled with 0.001% bupivacaine and inserted into the patient's eyes. The patient then left.\nThe patient was given a vial of 0.01% bupivacaine to dilute 1:10 (e.g., add one drop of 0.01% bupivacaine to nine drops of saline) to fill the reservoir of the left lens prior to inserting it the next morning.\nThey wore the BOS-P containing 0.001% bupivacaine in their left eye, and the BOS-P containing saline in their right eye unmasked to the patient and doctor, for about 8 hours. […] Corneal sensation in the treated eye was normal. […]"}, "corneal sensation": {"tested_on": "corneal sensation", "test": "Corneal sensitivity measured with a Cochet-Bonnet aesthesiometer", "assay_type": "in vivo, human", "from_the_text": "The sub-hypoesthetic dose for a sodium channel blocker or a sodium channel modulator may vary between patients. […] The sub-hypoesthetic dose of a sodium channel blocker or a sodium channel modulator can be determined for an individual patient by selecting a higher starting concentration and gradually reducing the concentration via titration until reaching a sub-hypoesthetic dose as determined by a contact and non-contact esthesiometer. A non-limiting example of a method of determining corneal sensitivity is Cochet-Bonnet aesthesiometry.\nAs used herein, the phrases “sub-anesthetic dose” and “sub-anesthetic concentration” refer to a dose of a sodium channel blocker or a sodium channel modulator or a sodium channel modulator that is lower than the anesthetic dose. “Sub-anesthetic dose” and “sub-anesthetic concentration” may be used interchangeably. The sub-anesthetic dose of a sodium channel blocker or a sodium channel modulator may vary between patients. The sub-anesthetic dose of a sodium channel blocker or a sodium channel modulator can be determined for an individual patient by selecting a higher starting concentration and gradually reducing the concentration via titration until reaching a sub-anesthetic dose as determined by a contact and non-contact esthesiometer. A non-limiting example of a starting concentration of a sodium channel blocker or a sodium channel modulator is about 0.02%. In some embodiments, the concentration of the sodium channel blocker or a sodium channel modulator may be titrated down to a concentration that avoids any depression of corneal sensitivity. A non-limiting example of a method of determining corneal sensitivity is Cochet-Bonnet aesthesiometry.\nas §1\nThe patient was given a vial of 0.01% bupivacaine to dilute 1:10 (e.g., add one drop of 0.01% bupivacaine to nine drops of saline) to fill the reservoir of the left lens prior to inserting it the next morning. […]"}, "cornea [3]": {"tested_on": "cornea", "test": "Examination of the cornea for adverse effects (fluorescein staining, slit lamp examination, confocal microscopy)", "assay_type": "in vivo, human", "protocol": "They wore the BOS-P containing 0.001% bupivacaine in their left eye, and the BOS-P containing saline in their right eye unmasked to the patient and doctor, for about 8 hours. […] Corneal sensation in the treated eye was normal.\nThe patient returned the following day 2 hours after inserting the scleral lenses containing 0.015% ropivacaine.\nA patient suffered from severe corneal neuropathic pain for many years, greatly limiting the patient's quality of life. This disease was refractory to previous treatments. Lacosamide was placed in the fluid reservoir of the device where it remained in contact with the cornea while it was worn (approximately 10 hours/day)."}, "corneal neuropathic pain [4]": {"tested_on": "corneal neuropathic pain", "test": "Eye drops without scleral lens for corneal neuropathic pain", "assay_type": "in vivo, human", "details": "Example 5, eye drops 0.5% lacosamide", "protocol": "Eye drops containing 0.5% lacosamide were administered to the eyes of two patients and to the an eye of the inventor. […] Therefore, it is believed that lacosamide may be used in eye drops at a concentration of up to 5% to treat corneal neuropathic pain without depressing corneal sensation."}}}
{"compound": "CCCOc1ccc(C(=O)OCCN(CC)CC)cc1N", "note": "[Proparacaine, proparacaine]", "values": [{"measurement": "anesthetic effect, toxicity and safety", "setting": "cornea [1]", "value": "non-anesthetic, non-toxic, and safe for at least one week of use"}]}
{"compound": "CCCCN1CCCCC1C(=O)Nc1c(C)cccc1C", "note": "(stereo not shown) [bupivacaine]", "values": [{"measurement": "eye comfort reported by patient", "setting": "corneal neuropathic pain [2]; Example 1, next day after both BOS-P devices were filled with 0.001% bupivacaine", "value": "more comfortable than they had been in 3 months"}, {"measurement": "pain reported by patient at day's end", "setting": "corneal neuropathic pain [2]; Example 1, second day, left lens reservoir filled with non-preserved bupivacaine", "value": "virtual absence of pain in either eye"}, {"measurement": "pain after exposure to glass cleaner or white board marker", "setting": "corneal neuropathic pain [2]; Example 1, second day, exposure would ordinarily trigger severe pain", "value": "little or no pain"}, {"measurement": "pain reported after about 8 hours of wear", "setting": "corneal neuropathic pain [2]; Example 1, third day, 0.001% bupivacaine in left BOS-P, saline in right BOS-P", "value": "virtually no pain in either eye"}, {"measurement": "pain, Visual Analog Scale", "setting": "corneal neuropathic pain [2]; Example 1, third day, on arrival", "value": "virtually no pain in either eye"}, {"measurement": "eye symptoms (photosensitivity, burning pain, inability to read)", "setting": "corneal neuropathic pain [2]; Example 2, 0.002% bupivacaine in both BOS-P lenses, at least 12 hours/day, over several weeks", "value": "resolved"}, {"measurement": "eye symptoms", "setting": "corneal neuropathic pain [2]; Example 2, bupivacaine diluted to 0.0014% in BOS-P", "value": "resolved"}, {"measurement": "sub-anesthetic concentration (concentration that avoided any depression of corneal sensitivity)", "setting": "corneal sensation; Example 1, Sjögren's syndrome patient, titration with drops every 2-5 minutes in left eye", "value": 0.001, "unit": "%"}, {"measurement": "corneal sensation by Cochet-Bonnet aesthesiometry", "setting": "corneal sensation; in vivo", "value": "remained intact"}, {"measurement": "fluorescein staining after lens removal", "setting": "cornea [3]; in vivo", "value": "no significant fluorescein staining in either eye"}]}
{"compound": "COC[C@@H](NC(C)=O)C(=O)NCc1ccccc1", "note": "[lacosamide]", "values": [{"measurement": "corneal neuropathic pain", "setting": "corneal neuropathic pain [2]; Example 4, 0.003% lacosamide in BOS-P, approximately 10 hours/day", "value": "significantly mitigated"}, {"measurement": "eye and co-morbid pain symptoms", "setting": "corneal neuropathic pain [2]; Example 6, chronic graft versus host disease patient, lacosamide 0.05% in scleral lens reservoir", "value": "disappeared"}, {"measurement": "maximum concentration that avoided significant depression of corneal sensation", "setting": "corneal sensation; Example 4, titration, fluid reservoir of BOS-P", "value": 0.003, "unit": "%"}, {"measurement": "corneal sensation", "setting": "corneal sensation; Example 5, eye drops 0.5% lacosamide, two patients and an eye of the inventor", "value": "did not depress corneal sensation"}, {"measurement": "effects on the corneas by slit lamp examination and confocal microscopy", "setting": "cornea [3]; Example 4, 0.003% lacosamide in BOS-P", "value": "without any detrimental effects to the corneas"}, {"measurement": "duration of effect, one patient", "setting": "corneal neuropathic pain [4]", "value": "over four hours"}, {"measurement": "duration of effect, the other patient", "setting": "corneal neuropathic pain [4]", "value": "over two hours"}, {"measurement": "onset of pain resolution", "setting": "corneal neuropathic pain [4]", "value": "almost immediately after administration"}, {"measurement": "corneal neuropathic pain", "setting": "corneal neuropathic pain [4]; both patients", "value": "complete resolution of corneal neuropathic pain"}]}
{"compound": "CCCN1CCCC[C@H]1C(=O)Nc1c(C)cccc1C", "note": "[ropivacaine]", "values": [{"measurement": "eye pain and photophobia, lenses worn until midnight the previous day", "setting": "corneal neuropathic pain [2]; Example 3, 0.015% ropivacaine in scleral lenses", "value": "total resolution of eye pain and photophobia"}, {"measurement": "symptoms at examination, 2 hours after inserting lenses", "setting": "corneal neuropathic pain [2]; Example 3, 0.015% ropivacaine, following day", "value": "free of symptoms"}, {"measurement": "eye pain and photosensitivity following application", "setting": "corneal neuropathic pain [2]; Example 3, Stevens-Johnson syndrome patient, 0.015% ropivacaine in scleral lenses, first day", "value": "rapid mitigation of eye pain and photosensitivity"}, {"measurement": "eye pain and photophobia at subsequent examinations", "setting": "corneal neuropathic pain [2]; Example 3, ropivacaine in scleral lenses", "value": "significant mitigation of eye pain and photophobia"}, {"measurement": "corneal sensitivities at subsequent examinations", "setting": "corneal sensation; in vivo", "value": "normal corneal sensitivities"}, {"measurement": "corneal sensitivity by Cochet-Bonnet aesthesiometer", "setting": "corneal sensation; in vivo", "value": "normal"}, {"measurement": "adverse effects on the eyes from the treatment", "setting": "cornea [3]; in vivo", "value": "no adverse effects"}, {"measurement": "treatment-related complications at subsequent examinations", "setting": "cornea [3]; in vivo", "value": "without adverse treatment-related complications"}]}
